Measured values: US9359358B2, “Cyclohexyl azetidine derivatives as JAK inhibitors” (Incyte Holdings Corporation, priority 2011, dated 2016)
Counter-ions that a name gives are not always drawn.

Experiments:
human JAK1 = target: T1, human JAK1 (Homo sapiens, UniProt P23458); assay: In Vitro JAK Kinase Assay (HTRF, phosphorylation of a biotinylated peptide), JAK1; format: biochemical; settings: catalytic domain a.a. 837-1142, assay of Example A
T1 construct: human JAK1 (a.a. 837-1142); His tag (N); made in house; host or cells: insect cells (baculovirus)
T1 sequence (P23458 849-1154): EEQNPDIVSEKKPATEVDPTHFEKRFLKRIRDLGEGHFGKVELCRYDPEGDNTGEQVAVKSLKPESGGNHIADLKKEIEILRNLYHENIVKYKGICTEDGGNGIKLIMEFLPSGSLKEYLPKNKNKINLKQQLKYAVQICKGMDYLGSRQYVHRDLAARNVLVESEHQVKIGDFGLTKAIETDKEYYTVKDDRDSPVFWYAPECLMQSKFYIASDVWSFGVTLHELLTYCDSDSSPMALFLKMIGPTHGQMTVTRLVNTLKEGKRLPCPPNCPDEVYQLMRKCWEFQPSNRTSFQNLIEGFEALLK
In short: (§1)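 HTRF detection (SA-APC plus Eu-labeled anti-phosphotyrosine Py20, 40 min after EDTA stop) quantified biotinylated-peptide phosphorylation. Kinase reactions with human JAK1 or JAK2 catalytic domains lasted 1 h at room temperature.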

human JAK2 = target: T2, human JAK2 (Homo sapiens, UniProt O60674); assay: In Vitro JAK Kinase Assay (HTRF, phosphorylation of a biotinylated peptide), JAK2; format: biochemical; settings: assay of Example A
T2 construct: JAK2 (a.a. 828-1132); His tag (N); made in house; host or cells: insect cells (baculovirus)
T2 sequence (O60674 828-1132): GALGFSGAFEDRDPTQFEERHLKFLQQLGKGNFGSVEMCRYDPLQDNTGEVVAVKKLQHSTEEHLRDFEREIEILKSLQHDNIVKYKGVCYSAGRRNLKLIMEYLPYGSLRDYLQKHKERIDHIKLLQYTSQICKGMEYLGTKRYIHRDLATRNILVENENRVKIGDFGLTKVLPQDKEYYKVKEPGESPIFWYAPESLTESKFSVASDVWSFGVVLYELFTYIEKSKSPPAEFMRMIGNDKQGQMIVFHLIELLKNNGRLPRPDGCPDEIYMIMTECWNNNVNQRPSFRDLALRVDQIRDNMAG
In short: as §1

SMILES	IC50 (human JAK1; Table 4) [nM]	JAK2/JAK1 IC50 ratio (human JAK2; Table 4)	IC50 (human JAK1; Table 5) [nM]	JAK2/JAK1 IC50 ratio (human JAK2; Table 5)
COCCN(C)Cc1cc(O[C@H]2CC[C@@H](N3CC(CC#N)(n4cc(-c5ncnc6[nH]ccc56)cn4)C3)CC2)nc(C(F)(F)F)n1.O=C(O)C(F)(F)F.O=C(O)C(F)(F)F.O=C(O)C(F)(F)F [Example 42, {1-(cis-4-{[6-{[(2-methoxyethyl)(methyl)amino]methyl}-2-(trifluoromethyl)pyrimidin-4-yl]oxy}cyclohexyl)-3-[4-(7H-pyrrolo[2,3-d]pyrimidin-4-yl)-1H-pyrazol-1-yl]azetidin-3-yl}acetonitrile tris(trifluoroacetate)]	< 10	≧10		
CC(C)(O)c1cc(O[C@H]2CC[C@@H](N3CC(CC#N)(n4cc(-c5ncnc6[nH]ccc56)cn4)C3)CC2)nc(C(F)(F)F)n1 [Example 43, {1-(cis-4-{[6-(1-Hydroxy-1-methylethyl)-2-(trifluoromethyl)pyrimidin-4-yl]oxy}cyclohexyl)-3-[4-(7H-pyrrolo[2,3-d]pyrimidin-4-yl)-1H-pyrazol-1-yl]azetidin-3-yl}acetonitrile bis(trifluoroacetate)]	< 10	≧10		
CC(C)(C)NCc1cc(O[C@H]2CC[C@@H](N3CC(CC#N)(n4cc(-c5ncnc6[nH]ccc56)cn4)C3)CC2)nc(C(F)(F)F)n1 [Example 44, {1-(cis-4-{[6-[(tert-Butylamino)methyl]-2-(trifluoromethyl)pyrimidin-4-yl]oxy}cyclohexyl)-3-[4-(7H-pyrrolo[2,3-d]pyrimidin-4-yl)-1H-pyrazol-1-yl]azetidin-3-yl}acetonitrile tetrakis(trifluoroacetate)]	< 10	≧10		
N#CCC1(n2cc(-c3ncnc4[nH]ccc34)cn2)CN([C@H]2CC[C@@H](Oc3cc(CCO)nc(C(F)(F)F)n3)CC2)C1 [Example 45, {1-(cis-4-{[6-(2-hydroxyethyl)-2-(trifluoromethyl)pyrimidin-4-yl]oxy}cyclohexyl)-3-[4-(7H-pyrrolo[2,3-d]pyrimidin-4-yl)-1H-pyrazol-1-yl]azetidin-3-yl}acetonitrile tris(trifluoroacetate)]	< 10	≧10		
CN(C)C(=O)c1cc(O[C@H]2CC[C@@H](N3CC(CC#N)(n4cc(-c5ncnc6[nH]ccc56)cn4)C3)CC2)nc(C(F)(F)F)n1 [Example 46, 6-[(cis-4-{3-(cyanomethyl)-3-[4-(7H-pyrrolo[2,3-d]pyrimidin-4-yl)-1H-pyrazol-1-yl]azetidin-1-yl}cyclohexyl)oxy]-N,N-dimethyl-2-(trifluoromethyl)pyrimidine-4-carboxamide bis(trifluoroacetate)]	< 10	≧10		
CCN(C)C(=O)c1cc(O[C@H]2CC[C@@H](N3CC(CC#N)(n4cc(-c5ncnc6[nH]ccc56)cn4)C3)CC2)nc(C(F)(F)F)n1 [Example 48, 6-[(cis-4-{3-(cyanomethyl)-3-[4-(7H-pyrrolo[2,3-d]pyrimidin-4-yl)-1H-pyrazol-1-yl]azetidin-1-yl}cyclohexyl)oxy]-N-ethyl-N-methyl-2-(trifluoromethyl)pyrimidine-4-carboxamide bis(trifluoroacetate)]	< 10	≧10		
CCNC(=O)c1cc(O[C@H]2CC[C@@H](N3CC(CC#N)(n4cc(-c5ncnc6[nH]ccc56)cn4)C3)CC2)nc(C(F)(F)F)n1 [Example 49, 6-[(cis-4-{3-(cyanomethyl)-3-[4-(7H-pyrrolo[2,3-d]pyrimidin-4-yl)-1H-pyrazol-1-yl]azetidin-1-yl}cyclohexyl)oxy]-N-ethyl-2-(trifluoromethyl)pyrimidine-4-carboxamide bis(trifluoroacetate)]	< 10	≧10		
COCCNC(=O)c1cc(O[C@H]2CC[C@@H](N3CC(CC#N)(n4cc(-c5ncnc6[nH]ccc56)cn4)C3)CC2)nc(C(F)(F)F)n1 [Example 50, 6-[(cis-4-{3-(cyanomethyl)-3-[4-(7H-pyrrolo[2,3-d]pyrimidin-4-yl)-1H-pyrazol-1-yl]azetidin-1-yl}cyclohexyl)oxy]-N-(2-methoxyethyl)-2-(trifluoromethyl)pyrimidine-4-carboxamide bis(trifluoroacetate)]	< 10	≧10		
CC(C)(CO)NCc1cc(O[C@H]2CC[C@@H](N3CC(CC#N)(n4cc(-c5ncnc6[nH]ccc56)cn4)C3)CC2)nc(C(F)(F)F)n1.O=C(O)C(F)(F)F.O=C(O)C(F)(F)F.O=C(O)C(F)(F)F.O=C(O)C(F)(F)F [Example 52, {1-(cis-4-{[6-{[(2-hydroxy-1,1-dimethylethyl)amino]methyl}-2-(trifluoromethyl)pyrimidin-4-yl]oxy}cyclohexyl)-3-[4-(7H-pyrrolo[2,3-d]pyrimidin-4-yl)-1H-pyrazol-1-yl]azetidin-3-yl}acetonitrile tetrakis(trifluoroacetate) (salt)]	< 10	≧10		
CC1(NCc2cc(O[C@H]3CC[C@@H](N4CC(CC#N)(n5cc(-c6ncnc7[nH]ccc67)cn5)C4)CC3)nc(C(F)(F)F)n2)CC1.O=C(O)C(F)(F)F.O=C(O)C(F)(F)F.O=C(O)C(F)(F)F [Example 53, {1-(cis-4-{[6-{[(1-methylcyclopropyl)amino]methyl}-2-(trifluoromethyl)pyrimidin-4-yl]oxy}cyclohexyl)-3-[4-(7H-pyrrolo[2,3-d]pyrimidin-4-yl)-1H-pyrazol-1-yl]azetidin-3-yl}acetonitrile tris(trifluoroacetate)]	< 10	≧10		
CC(C)(F)c1cc(O[C@H]2CC[C@@H](N3CC(CC#N)(n4cc(-c5ncnc6[nH]ccc56)cn4)C3)CC2)nc(C(F)(F)F)n1.O=C(O)C(F)(F)F.O=C(O)C(F)(F)F [Example 61, {1-(cis-4-{[6-(1-fluoro-1-methylethyl)-2-(trifluoromethyl)pyrimidin-4-yl]oxy}cyclohexyl)-3-[4-(7H-pyrrolo[2,3-d]pyrimidin-4-yl)-1H-pyrazol-1-yl]azetidin-3-yl}acetonitrile bis(trifluoroacetate)]	< 10	≧10		

The next lines start with the values.

IC50 (human JAK1; Table 4) [nM]	JAK2/JAK1 IC50 ratio (human JAK2; Table 4)	IC50 (human JAK1; Table 5) [nM]	JAK2/JAK1 IC50 ratio (human JAK2; Table 5)	SMILES
< 10	≧10			N#CCC1(n2cc(-c3ncnc4[nH]ccc34)cn2)CN([C@H]2CC[C@@H](Oc3cc(C(=O)N4CCCC4)nc(C(F)(F)F)n3)CC2)C1 [Example 51, {1-(cis-4-{[6-(pyrrolidin-1-ylcarbonyl)-2-(trifluoromethyl)pyrimidin-4-yl]oxy}cyclohexyl)-3-[4-(7H-pyrrolo[2,3-d]pyrimidin-4-yl)-1H-pyrazol-1-yl]azetidin-3-yl}acetonitrile bis(trifluoroacetate)]
< 10	≧10			N#CCC1(n2cc(-c3ncnc4[nH]ccc34)cn2)CN([C@H]2CC[C@@H](Oc3cc(C#N)nc(C(F)(F)F)n3)CC2)C1 [Example 54, 6-[(cis-4-{3-(cyanomethyl)-3-[4-(7H-pyrrolo[2,3-d]pyrimidin-4-yl)-1H-pyrazol-1-yl]azetidin-1-yl}cyclohexyl)oxy]-2-(trifluoromethyl)pyrimidine-4-carbonitrile bis(trifluoroacetate)]
< 10	≧10			N#CCC1(n2cc(-c3ncnc4[nH]ccc34)cn2)CN([C@H]2CC[C@@H](Oc3cc(OCCO)nc(C(F)(F)F)n3)CC2)C1 [Example 56, {1-(cis-4-{[6-(2-hydroxyethoxy)-2-(trifluoromethyl)pyrimidin-4-yl]oxy}cyclohexyl)-3-[4-(7H-pyrrolo[2,3-d]pyrimidin-4-yl)-1H-pyrazol-1-yl]azetidin-3-yl}acetonitrile bis(trifluoroacetate) (salt)]
< 10	≧10			N#CCC1(n2cc(-c3ncnc4[nH]ccc34)cn2)CN([C@H]2CC[C@@H](Oc3cc(CCF)nc(C(F)(F)F)n3)CC2)C1 [Example 60, {1-(cis-4-{[6-(2-fluoro ethyl)-2-(trifluoromethyl)pyrimidin-4-yl]oxy}cyclohexyl)-3-[4-(7H-pyrrolo[2,3-d]pyrimidin-4-yl)-1H-pyrazol-1-yl]azetidin-3-yl}acetonitrile tris(trifluoroacetate)]
< 10	≧10			CC(C)(CO)c1cc(O[C@H]2CC[C@@H](N3CC(CC#N)(n4cc(-c5ncnc6[nH]ccc56)cn4)C3)CC2)nc(C(F)(F)F)n1 [Example 62, {1-(cis-4-{[6-(2-hydroxy-1,1-dimethylethyl)-2-(trifluoromethyl)pyrimidin-4-yl]oxy}cyclohexyl)-3-[4-(7H-pyrrolo[2,3-d]pyrimidin-4-yl)-1H-pyrazol-1-yl]azetidin-3-yl}acetonitrile tris(trifluoroacetate) (salt)]
< 10	≧10			N#CCC1(n2cc(-c3ncnc4[nH]ccc34)cn2)CN([C@H]2CC[C@@H](Oc3cc(C4(CO)CC4)nc(C(F)(F)F)n3)CC2)C1 [Example 63, {1-(cis-4-{[6-[1-(hydroxymethyl)cyclopropyl]-2-(trifluoromethyl)pyrimidin-4-yl]oxy}cyclohexyl)-3-[4-(7H-pyrrolo[2,3-d]pyrimidin-4-yl)-1H-pyrazol-1-yl]azetidin-3-yl}acetonitrile bis(trifluoroacetate) (salt)]
		< 10	≧10	N#CCC1(n2cc(-c3ncnc4[nH]ccc34)cn2)CN([C@H]2CC[C@@H](Oc3cc(CO)cc(C(F)(F)F)n3)CC2)C1 [Example 64, {1-(cis-4-{[4-(hydroxymethyl)-6-(trifluoromethyl)pyridin-2-yl]oxy}cyclohexyl)-3-[4-(7H-pyrrolo[2,3-d]pyrimidin-4-yl)-1H-pyrazol-1-yl]azetidin-3-yl}acetonitrile bis(trifluoroacetate)]
